Laboratory results from ChEMBL document CHEMBL2073966, “Cloning and functional characterization of a new multispecific organic anion transporter, OAT-K2, in rat kidney” (Mol Pharmacol, 1999).

What was measured:
Format in all cases: functional, cell-based
[1] = molecular target: T1, Solute carrier organic anion transporter family member 1A3 (Rattus norvegicus, UniProt P70502); experiment: TP_TRANSPORTER: inhibition of Taurocholate uptake in OAT-K2-expressing MDCK cells; conditions: dog
T1 sequence (P70502 whole entry): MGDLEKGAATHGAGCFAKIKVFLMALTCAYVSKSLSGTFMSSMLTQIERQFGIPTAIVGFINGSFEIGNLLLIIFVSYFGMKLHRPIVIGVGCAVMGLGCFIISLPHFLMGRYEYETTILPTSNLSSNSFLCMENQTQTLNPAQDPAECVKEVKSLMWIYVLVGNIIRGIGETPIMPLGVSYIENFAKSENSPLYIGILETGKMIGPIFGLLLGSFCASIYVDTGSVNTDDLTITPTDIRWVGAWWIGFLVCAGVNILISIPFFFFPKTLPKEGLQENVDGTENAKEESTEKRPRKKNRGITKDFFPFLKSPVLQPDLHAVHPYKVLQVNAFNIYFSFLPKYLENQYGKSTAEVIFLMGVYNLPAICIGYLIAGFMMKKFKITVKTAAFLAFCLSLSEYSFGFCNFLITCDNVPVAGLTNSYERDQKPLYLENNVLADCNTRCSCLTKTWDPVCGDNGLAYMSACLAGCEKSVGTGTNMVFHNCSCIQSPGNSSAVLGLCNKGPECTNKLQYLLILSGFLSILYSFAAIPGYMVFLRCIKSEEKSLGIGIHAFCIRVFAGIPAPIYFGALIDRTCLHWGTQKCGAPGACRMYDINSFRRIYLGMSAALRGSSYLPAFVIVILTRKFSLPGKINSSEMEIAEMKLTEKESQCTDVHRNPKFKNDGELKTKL

[2] = molecular target: T1, Solute carrier organic anion transporter family member 1A3; experiment: TP_TRANSPORTER: uptake in OAT-K2-expressing MDCK cells; conditions: dog
[3] = molecular target: T1, Solute carrier organic anion transporter family member 1A3; experiment: TP_TRANSPORTER: uptake in Xenopus laevis oocytes; conditions: oocyte

SMILES | Activity [1] | Activity [2] | Activity [3]
C[C@H](CCC(=O)O)[C@H]1CC[C@H]2[C@@H]3CC[C@@H]4C[C@H](O)CC[C@]4(C)[C@H]3C[C@H](O)[C@]12C [DEOXYCHOLIC ACID] | inhibitor [+] |  | 
C[C@@H]1C[C@H]2[C@@H]3CCC4=CC(=O)C=C[C@]4(C)[C@@]3(F)[C@@H](O)C[C@]2(C)[C@@]1(O)C(=O)CO [DEXAMETHASONE] | inhibitor [+] |  | 
CCCCC[C@H](O)/C=C/[C@H]1[C@H](O)CC(=O)[C@@H]1C/C=C\CCCC(=O)O [DINOPROSTONE] |  | substrate [+] | substrate [+]
C[C@]12CC[C@@H]3c4ccc(O)cc4CC[C@H]3[C@@H]1CC[C@@H]2O [ESTRADIOL] | inhibitor [+] |  | 
C[C@]12CC[C@@H]3c4ccc(O)cc4CC[C@H]3[C@@H]1C[C@@H](O)[C@@H]2O [ESTRIOL] | inhibitor [+] |  | 
Nc1nc2ncc(CNc3ccc(C(=O)N[C@@H](CCC(=O)O)C(=O)O)cc3)nc2c(=O)[nH]1 [FOLIC ACID] |  |  | substrate [+]
C[C@H](CCC(=O)NCC(=O)O)[C@H]1CC[C@H]2[C@@H]3[C@H](O)C[C@@H]4C[C@H](O)CC[C@]4(C)[C@H]3CC[C@]12C [GLYCOCHENODEOXYCHOLATE] | inhibitor [+] |  | 
C[C@H](CCC(=O)NCC(=O)O)[C@H]1CC[C@H]2[C@@H]3[C@H](O)C[C@@H]4C[C@H](O)CC[C@]4(C)[C@H]3C[C@H](O)[C@]12C [GLYCOCHOLIC ACID] | inhibitor [+] |  | 
COc1ccc2c(c1)c(CC(=O)O)c(C)n2C(=O)c1ccc(Cl)cc1 [INDOMETHACIN] | inhibitor [+] |  | 
CN(Cc1cnc2nc(N)nc(N)c2n1)c1ccc(C(=O)N[C@@H](CCC(=O)O)C(=O)O)cc1 [METHOTREXATE] |  |  | substrate [+]
C[C@]12C=CC(=O)C=C1CC[C@@H]1[C@@H]2[C@@H](O)C[C@@]2(C)[C@H]1CC[C@]2(O)C(=O)CO [PREDNISOLONE] | inhibitor [+] |  | 
CCCN(CCC)S(=O)(=O)c1ccc(C(=O)O)cc1 [PROBENECID] | inhibitor [+] |  | 
CC(=O)S[C@@H]1CC2=CC(=O)CC[C@]2(C)[C@H]2CC[C@@]3(C)[C@@H](CC[C@@]34CCC(=O)O4)[C@H]12 [SPIRONOLACTONE] | inhibitor [+] |  | 
O=C1OC(c2ccc(O)c(S(=O)(=O)[O-])c2)(c2ccc(O)c(S(=O)(=O)[O-])c2)c2c(Br)c(Br)c(Br)c(Br)c21.[Na+].[Na+] [SULFOBROMOPHTHALEIN SODIUM] | inhibitor [+] |  | 
C[C@H](CCC(=O)NCCS(=O)(=O)O)[C@H]1CC[C@H]2[C@@H]3[C@H](O)C[C@@H]4C[C@H](O)CC[C@]4(C)[C@H]3CC[C@]12C [TAUROCHENODEOXYCHOLATE] | inhibitor [+] |  | 
C[C@H](CCC(=O)NCCS(=O)(=O)O)[C@H]1CC[C@H]2[C@@H]3CC[C@@H]4C[C@H](O)CC[C@]4(C)[C@H]3C[C@H](O)[C@]12C [TAURODEOXYCHOLIC ACID] | inhibitor [+] |  | 
C[C@]12CC[C@H]3[C@@H](CCC4=CC(=O)CC[C@@]43C)[C@@H]1CC[C@@H]2O [TESTOSTERONE] | inhibitor [+] |  | 
C[C@H](CCC(=O)O)[C@H]1CC[C@H]2[C@@H]3[C@@H](O)C[C@@H]4C[C@H](O)CC[C@]4(C)[C@H]3CC[C@]12C [URSODIOL] | inhibitor [+] |  | 
